Source: patent US11141451B2, “Pharmaceutical composition and health functional food comprising oat extract avenanthramide C or derivative thereof as effective ingredient for prevention or treatment of neurodegenerative disease” (INDUSTRY FOUNDATION OF CHONNAM NATIONAL UNIVERSITY, priority 2016, dated 2021)

Experiments:
[1] = tested on: long-term potentiation (LTP) in hippocampal slice of Tg2576 induced AD mouse; test: LTP induction in hippocampal slice of Tg2576 induced AD mouse; assay type: cell-based; conditions: 7-month-old Tg2576 mouse hippocampal slice, 50 μM compound
Protocol: (§1) The mice of Example 1 were anesthetized and decapitated to excise brains. The extracted brains were kept in a cooled artificial cerebrospinal fluid (aCSF) (124 mM NaCl, 3 mM KCl, 26 mM NaHCO3, 2 mM CaCl2, 1 mM MgSO4, 10 mM Glucose, 1.25 mM NaH2PO4, and 2 mM CaCl2) saturated with 95% oxygen. Hippocampal slices were sampled from the brains, and the hippocampal slice samples were prepared with a thickness of 400 μm. Then, the hippocampal slice samples were recovered in the aCSF (124 mM NaCl, 3 mM KCl, 26 mM NaHCO3, 2 mM CaCl2, 1 mM MgSO4, 10 mM Glucose, 1.25 mM NaH2PO4, and 2 mM CaCl2) saturated with 95% oxygen at a temperature of 22 to 25° C. for 1 hour, and then used in the experiment.
(§2) For LTP induction, the hippocampal slice samples were located in a recording chamber, respectively, and then were observed by analyzing a field excitatory postsynaptic potential (fEPSP) by stimulation of Schaffer-Collateral fiber, while applying stimulations to the samples with 100 Hz every 200 ms, and the experiment was performed for 90 minutes. During the experiment, the aCSF was supplied by flowing with a rate of 2 to 3 ml/min at 30° C., and the obtained experimental results were compared using the ANOVA test known in the art. The obtained results are illustrated in FIGS. 1 to 7.
(§3) In order to examine effects of avenanthramide C according to the present invention on the LTD in a hippocampal slice of a 7-month-old Tg2576 induced AD mouse, an LTP comparison experiment was performed using a hippocampal slice of a gene manipulated mouse in the same method as Experimental Example 1, and the results thereof are illustrated in FIGS. 12A and 12B.
as §3, with “B methyl ester” for “C”, “performed in the same method as Experimental Example 1” for “performed”, “mouse,” for “mouse in the same method as Experimental Example 1,”, “16A” for “12A”, “16B. […]” for “12B.”

[2] = tested on: long-term potentiation (LTP) in hippocampal slice of C57BL/6 mouse; test: LTP induction (fEPSP, Schaffer-Collateral stimulation) in hippocampal slices treated with amyloid-β; assay type: cell-based
Protocol: as §1, §2
In order to examine effects of avenanthramide C methyl ester according to the present invention on the LTD in a hippocampal slice of a mouse, an LTP comparison experiment was performed in the same method as Experimental Example 1, and the results thereof are illustrated in FIGS. 14A to 14C.
An LTP comparison experiment was performed by treating the samples with amyloid-β and β-glucan in amounts as illustrated in Table 2 below two hours before the experiment by using the same method as in Experimental Example 1, except that β-glucan was used instead of avenanthramide C according to the present invention. The obtained results are illustrated in FIGS. 18 to 21.

GSK3β [3] = test: GSK3β activity by western blotting (GSK3αβ and phosphorylated GSK3β S9) in hippocampal slices treated with amyloid-β; assay type: cell-based, mouse
Protocol: as §1
Thereafter, RIPA [50 mM Tris-HCl (PH 7.5), 150 mM NaCl, 1% Nonidet P-40, 0.5% sodium deoxycholate, 0.1% SDS, 1 mM phenylmethylsulfonyl fluoride (PMSF), 1 mM DTT, and 2 μg of leupeptin and aprotinin, respectively, were dissolved therein. The crushed cells were centrifuged with 12,000 g at 4° C. for 20 minutes, and the resulting soluble fractions were denatured in a Laemmli buffer and subjected to sodium dodecyl sulfate-polyacrylamide gel electrophoresis (SDS-PAGE). After gel electrophoresis, the separated proteins were transferred to a polyvinylidene difluoride (PVDF) membrane using electroblotting. The membrane was blocked with AMRESCO, RAPIDBLOCK solution (pH 7) and subjected to blotting by using enhanced chemiluminescence (ECL). For blotting, an antibody for GSK3αβ and an antibody for phosphorylated GSK3β (S9) were used. The obtained results are illustrated in FIGS. 8 and 9. GSK3β is an enzyme whose activity is inhibited by the phosphorylation of serine residue 9, and is known as a modulator of a wide range of functions such as energy metabolism, cell proliferation, apoptosis and the like.
In order to examine effects of avenanthramide C methyl ester according to the present invention on activity of GSK3β in a hippocampal slice of a mouse, the same western blotting as Experimental Example 2 was performed, and the results thereof are illustrated in FIG. 15.

GSK3β [4] = test: GSK3β activity by western blotting in hippocampal slice of 5×FAD induced AD mouse; assay type: cell-based; conditions: 4-month-old 5×FAD mouse hippocampal slice, 50 μM compound, versus untreated
Protocol: as §1
(§4) Thereafter, RIPA [50 mM Tris-HCl (PH 7.5), 150 mM NaCl, 1% Nonidet P-40, 0.5% sodium deoxycholate, 0.1% SDS, 1 mM phenylmethylsulfonyl fluoride (PMSF), 1 mM DTT, and 2 μg of leupeptin and aprotinin, respectively, were dissolved therein. The crushed cells were centrifuged with 12,000 g at 4° C. for 20 minutes, and the resulting soluble fractions were denatured in a Laemmli buffer and subjected to sodium dodecyl sulfate-polyacrylamide gel electrophoresis (SDS-PAGE). After gel electrophoresis, the separated proteins were transferred to a polyvinylidene difluoride (PVDF) membrane using electroblotting. […]

GSK3β [5] = test: GSK3β activity by western blotting in hippocampal slice of Tg2576 induced AD mouse; assay type: cell-based; conditions: 7-month-old Tg2576 mouse hippocampal slice, 50 μM compound, versus untreated
Protocol: as §1, §4

[6] = tested on: long-term potentiation (LTP) in hippocampal slice of 5×FAD induced AD mouse; test: LTP induction in hippocampal slice of 5×FAD induced AD mouse; assay type: cell-based
Protocol: as §1
as §2, with “7. […]” for “7.”

[7] = hippocampal slice treated with 500 nM amyloid-β and 50 μM compound together
[8] = hippocampal slice treated with 500 nM amyloid-β and 500 μM compound together

## O=C(/C=C/c1ccc(O)cc1)Nc1ccc(O)cc1C(=O)O [avenanthramide A]
[1]
  LTP induction: induced

## COc1cc(/C=C/C(=O)Nc2ccc(O)cc2C(=O)O)ccc1O [avenanthramide B]
[1]
  LTP induction: slightly induced

## COC(=O)c1cc(O)ccc1NC(=O)/C=C/c1ccc(O)c(O)c1 [avenanthramide C methyl ester]
[2]; [7]
  LTP induction: induced
GSK3β [3]; [7]
  activity of GSK3β: inhibited

## O=C(/C=C/c1ccc(O)c(O)c1)Nc1ccc(O)cc1C(=O)O [avenanthramide C]
GSK3β [4]
  activity of GSK3β: more inhibited
GSK3β [5]
  activity of GSK3β: more inhibited
[2]; hippocampal slice treated with 500 nM amyloid-β and 10 μM compound together
  LTP induction: not induced
[2]; [7]
  LTP induction: induced
[2]; [8]
  LTP induction: induced
[2]; hippocampal slice treated with only 50 μM compound, no amyloid-β
  LTP induction: induced
[2]; hippocampal slice treated with only 500 μM compound, no amyloid-β
  LTP induction: induced
[2]; only 500 μM compound, no amyloid-β
  toxicity in hippocampal slice (LTP experiment): not exhibiting toxicity
[1]
  LTP induction: induced
GSK3β [3]; 500 nM amyloid-β and 500 μM compound together
  toxicity in hippocampal slice (GSK3β experiment): without toxicity
GSK3β [3]; [7]
  activity of GSK3β: inhibiting the activity of GSK3β
GSK3β [3]; [8]
  activity of GSK3β: inhibited
[6]; 4-month-old 5×FAD mouse hippocampal slice, 50 μM compound
  LTP induction: induced

## β-glucan [reference compound]
[2]; hippocampal slice treated with 500 nM amyloid-β and 80 μg/ml β-glucan together
  LTP induction: not induced
[2]; hippocampal slice treated with only 80 μg/ml β-glucan, no amyloid-β
  LTP induction: induced
[6]; induced AD mouse hippocampal slice, 80 μg/ml β-glucan
  LTP induction: not induced
